The first assay deals with T1, Dimer of Gag-Pol polyprotein [489-587] (Human immunodeficiency virus 1, UniProt P12497).
T1 construct: 489-587
Put plainly: Protease Inhibition Assay.
Conditions: not given
On the procedure: (§1) Enzymatic activity was measured by following cleavage of the substrate H-Lys-Ala-Arg-Val-Leu-pNph-Glu-Ala-Nle-NH2. Products of the cleavage reaction were quantified by HPLC detection
Molecule `CC(C)[C@H](NC(=O)OCc1ccccc1)C(=O)N[C@@H](Cc1ccccc1)[C@@H](O)[C@@H](NCc1ccccc1)C(=O)N[C@@H](C(=O)NCc1ccccc1)C(C)(C)C` [5PhBuCOOH deriv.] registered a Ki of more than 3000 nM.
The molecule `COc1ccc(CN[C@@H](C(=O)N[C@H](C(=O)NCc2nc3ccccc3[nH]2)C(C)C)[C@H](O)[C@H](Cc2ccccc2)NC(=O)[C@@H](NC(=O)[C@@](C)(O)c2ccccc2)C(C)(C)C)cc1` [5PhBuCOOH deriv.] showed a Ki of 6 nM.

Still in this assay, the particulars now being: pH 6.25; 37 °C.
Molecule `CCC(C)[C@H](NC(=O)[C@H](NCc1ccccc1)[C@H](O)[C@H](Cc1ccccc1)NC(=O)[C@@H](NC(=O)OCc1ccccc1)C(C)C)C(=O)NCc1ccccc1` (stereo partly drawn) [benzyl N-[(1S)-1-{[(2S,3R,4R)-4-(benzylamino)-4-{[(1S,2R)-1-(benzylcarbamoyl)-2-methylbutyl]carbamoyl}-3-hydroxy-1-phenylbutan-2-yl]carbamoyl}-2-methylpropyl]carbamate] returned a Ki of more than 3000 nM.
The same measure, in the same setting: for `CC(C)[C@H](NC(=O)[C@H](NCc1ccccc1)[C@H](O)[C@H](Cc1ccccc1)NC(=O)[C@H](CCC(=O)O)NC(=O)OCc1ccccc1)C(=O)NCc1ccccc1` [5PhBuCOOH deriv.] the value was 45 nM; for `CCC(C)[C@H](NC(=O)OCc1ccccc1)C(=O)N[C@@H](Cc1ccccc1)[C@@H](O)[C@@H](NCc1ccccc1)C(=O)N[C@H](C(=O)NCc1ccccc1)C(C)C` (stereo partly drawn) [5PhBuCOOH deriv.], 8.3 nM; for `CC(C)[C@H](NC(=O)OCc1ccccc1)C(=O)N[C@@H](Cc1ccccc1)[C@@H](O)[C@@H](NCc1ccccc1)C(=O)N[C@H](C(=O)NCc1ccccc1)C(C)(C)C` [benzyl N-[(1S)-1-{[(2S,3R,4R)-4-(benzylamino)-4-{[(1S)-1-(benzylcarbamoyl)-2,2-dimethylpropyl]carbamoyl}-3-hydroxy-1-phenylbutan-2-yl]carbamoyl}-2-methylpropyl]carbamate], 20 nM.

Another assay has as its target T2, Dimer of Gag-Pol polyprotein [514-612] (Human immunodeficiency virus 2, UniProt P04584).
T2 construct: 514-612
T2 sequence (P04584 whole entry): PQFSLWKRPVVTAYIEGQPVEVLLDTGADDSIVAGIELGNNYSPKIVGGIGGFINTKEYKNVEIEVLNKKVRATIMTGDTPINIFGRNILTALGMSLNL
Put plainly: Protease Inhibition Assay.
Conditions: not given
As for the experimental part:
as §1
The molecule `CC(C)[C@H](NC(=O)[C@H](NCc1ccc(Cl)cc1)[C@H](O)[C@H](Cc1ccccc1)NC(=O)[C@@H](NC(=O)OCc1ccccc1)C(C)(C)C)C(=O)NCc1nc2ccccc2[nH]1` [benzyl N-[(1S)-1-{[(2S,3R,4R)-4-{[(1S)-1-[(1H-1,3-benzodiazol-2-ylmethyl)carbamoyl]-2-methylpropyl]carbamoyl}-4-{[(4-chlorophenyl)methyl]amino}-3-hydroxy-1-phenylbutan-2-yl]carbamoyl}-2,2-dimethylpropyl]carbamate] yielded an inhibitory constant (Ki) of 17 nM.
`COc1ccc(CN[C@@H](C(=O)N[C@H](C(=O)NCc2nc3ccccc3[nH]2)C(C)C)[C@H](O)[C@H](Cc2ccccc2)NC(=O)[C@@H](NC(=O)CCc2ccc(O)cc2)C(C)(C)C)cc1` [5PhBuCOOH deriv.] gave a Ki of 63 nM.
In turn, `COc1ccc(CN[C@@H](C(=O)N[C@H](C(=O)NCc2nc3ccccc3[nH]2)C(C)C)[C@H](O)[C@H](Cc2ccccc2)NC(=O)[C@@H](NC(=O)OCc2ccccc2)C(C)(C)C)cc1` [5PhBuCOOH deriv.] gave a Ki of 52 nM.
Turning to `COc1ccc(CN[C@@H](C(=O)N[C@H](C(=O)NCc2nc3ccccc3[nH]2)C(C)C)[C@H](O)[C@H](Cc2ccccc2)NC(=O)[C@@H](NC(=O)[C@@](C)(O)c2ccccc2)C(C)(C)C)cc1` [5PhBuCOOH deriv.], the Ki was 110 nM.

The assay is the same for the next values; noted with them: pH 4.7; 37 °C.
The molecule `CC(C)[C@H](NC(=O)[C@H](NCc1ccccc1)[C@H](O)[C@H](Cc1ccccc1)NC(=O)[C@@H](NC(=O)OCc1ccccc1)C(C)(C)C)C(=O)NCc1ccccc1` [5PhBuCOOH deriv.] yielded a Ki of 54 nM.
In turn, `CC(C)[C@H](NC(=O)OCc1ccccc1)C(=O)N[C@@H](Cc1ccccc1)[C@@H](O)[C@@H](NCc1ccccc1)C(=O)N[C@H](C(=O)NCc1ccccc1)C(C)C` [5PhBuCOOH deriv.] came in with a Ki of 180 nM.
On the same count and under the same terms, for `COc1ccc(CN[C@@H](C(=O)N[C@H](C(=O)NCc2ccccc2)C(C)C)[C@H](O)[C@H](Cc2ccccc2)NC(=O)[C@@H](NC(=O)OCc2ccccc2)C(C)C)cc1` [benzyl N-[(1S)-1-{[(2S,3R,4R)-4-{[(1S)-1-(benzylcarbamoyl)-2-methylpropyl]carbamoyl}-3-hydroxy-4-{[(4-methoxyphenyl)methyl]amino}-1-phenylbutan-2-yl]carbamoyl}-2-methylpropyl]carbamate] the value was 39 nM.

Source of the values: BindingDB's records for doi:10.1021/jm00045a013 (Sandoz Forschungsinstitut Ges.M.B.H., 1994).
